The record followed here is patent US20240092761A1, “QUINAZOLINE COMPOUNDS AND METHODS OF USE” (IAMBIC THERAPEUTICS, INC., priority 2022, published 2024).

One assay concerns the target CDK1/Cyclin B1 (Homo sapiens (Human), UniProt P06493). Description: CDK1/Cyclin B1 ADP-Glo Kinase Assay. Type of assay: biochemical. To be noted: 80 uM ATP. In outline: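 Luminescent ADP-Glo detection of ADP produced over 90 min at room temperature. Enzyme complex 4.917 nM, pre-exposed 30 min to inhibitor; ATP 80 µM (near Km 78.6 µM), substrate 0.75 µM, HEPES pH 7.5, 2% DMSO. Fractional velocity fitted to 4-parameter IC50 equation.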
For orientation: In ADP-Glo the light output rises with the ADP produced.

In assay [1] the target is CDK2/Cyclin E1 full length (Homo sapiens (Human), UniProt P24941). Description: CDK2/Cyclin E1 Full Length ADP-Glo Kinase Assay. Type of assay: biochemical. Particulars: 20 uM ATP, read-out: CDK2/ CyclinE1 IC50. In outline:
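ADP-Glo luminescence read-out of ADP formed by 0.328 nM wild-type full-length CDK2/Cyclin E1, 90 min at room temperature with 0.75 uM substrate and 20 uM ATP (Km 64.78 uM), after 30 min enzyme–inhibitor pre-incubation; 50 mM HEPES pH 7.5, 2% DMSO. Four-parameter IC50 fit.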

The target in the next assay is CDK4/Cyclin D1 (Homo sapiens (Human), UniProt P11802). Description: CDK4/Cyclin D1 Mobility Shift Assay (MSA). Type of assay: biochemical. Particulars: 0.2 mM ATP, read-out: CDK4/ CyclinD1 MSA IC50. The source says: CDK4/Cyclin D1 Mobility Shift Assay (MSA)
CDK4/Cyclin D1, sequence (P11802 whole entry): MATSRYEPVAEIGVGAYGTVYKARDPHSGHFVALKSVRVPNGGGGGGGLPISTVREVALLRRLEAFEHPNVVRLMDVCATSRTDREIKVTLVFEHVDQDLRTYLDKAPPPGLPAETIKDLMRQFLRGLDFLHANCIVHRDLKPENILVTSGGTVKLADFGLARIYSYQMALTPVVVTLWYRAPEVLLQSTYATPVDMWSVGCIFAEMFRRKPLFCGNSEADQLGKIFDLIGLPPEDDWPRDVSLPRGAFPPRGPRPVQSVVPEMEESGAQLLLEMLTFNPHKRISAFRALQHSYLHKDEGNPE
CDK4/Cyclin D1, sequence (P24385 whole entry partner): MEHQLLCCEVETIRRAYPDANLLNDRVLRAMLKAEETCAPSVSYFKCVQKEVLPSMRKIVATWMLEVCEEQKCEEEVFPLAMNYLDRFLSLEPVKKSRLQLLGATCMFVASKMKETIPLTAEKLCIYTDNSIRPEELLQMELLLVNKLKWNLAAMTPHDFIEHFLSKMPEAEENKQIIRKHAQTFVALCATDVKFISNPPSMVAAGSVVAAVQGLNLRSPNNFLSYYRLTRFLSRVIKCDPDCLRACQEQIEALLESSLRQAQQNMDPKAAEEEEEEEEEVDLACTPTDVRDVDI
The purpose CDK4/Cyclin D1 assay is to evaluate the inhibition (% inhibition and IC50 values) in the presence of small molecule inhibitors by using a fluorescence based microfluidic mobility shift assay. CDK4/Cyclin D1 catalyzes the production of ADP from ATP that accompanies the phosphoryl transfer to the substrate peptide 5-FAM-Dyrktide (5-FAM-RRRFRPASPLRGPPK) (Perkin Elmer Peptide 34). The mobility shift assay (MSA) electrophoretically separates the fluorescently labelled peptides (substrate and phosphorylated product) following the kinase reaction. Both substrate and product are measured, and the ratio of these values is used to generate % conversion of substrate to product by the LabChip EZ Reader. Typical reaction solutions contained 2% DMSO (+/−inhibitor), 10 mM MgCl2, 1 mM EGTA, 0.05% BSA, 2 mM DTT, 0.2 mM ATP, 0.01% Brig-35, 1.5 uM 5-FAM-Dyrktide, 2.5 nM CDK4/Cyclin D1 in 50 mM HEPES buffer at pH 7.5. The reaction was initiated with the addition of substrate solution, following a 30-minute pre-incubation of enzyme and inhibitor at 22° C. in the reaction mix. The reaction was stopped after 180 minutes by the addition of 75 uL of 500 mM EDTA and measured on a Perkin Elmer EZ reader instrument. IC50 determinations were made from a plot of the fractional velocity as a function of inhibitor concentration fit to the 4 parameters IC50 equation.

The target of the next assay is CDK6/Cyclin D3 (Homo sapiens (Human), UniProt Q00534). Description: CDK6/Cyclin D3 ADP-Glo Kinase Assay. Type of assay: biochemical. To be noted: 100 uM ATP, read-out: CDK6/ CyclinD3 IC50. In outline:
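Luminescent ADP-Glo read-out of ADP produced, used to fit IC50 (4-parameter equation on fractional velocity against inhibitor concentration). Kinase reaction: enzyme and inhibitor together 30 min, then ATP-containing substrate added for 90 min, all at room temperature.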

For another assay, the system named is MCF-7 cells. As to the kind of experiment: Cell Growth Inhibition, MCF-7 (CellTiterGlo, 6 days). Type of assay: cell-based. To be noted: MCF-7, 6-day treatment, CellTiterGlo 2.0. In outline:
(§1)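 Compounds were run in half-log series, usually 10–10,000 nM, with 500 cells/well of OVCAR-3 or MCF-7 in RPMI plus 10% FBS. After a 6-day culture at 37 °C, viability was read by CellTiterGlo luminescence. Inhibition relative to control was fitted (four-parameter, variable slope) for IC50.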
(In general: In ATP-based viability assays light output follows the ATP content of the culture.)

A further assay has as its system OVCAR-3 cells. As to the kind of experiment: Cell Growth Inhibition, OVCAR-3 (CellTiterGlo, 6 days). To be noted: OVCAR-3, 6-day treatment, CellTiterGlo 2.0. Type of assay: cell-based. In outline: as §1

Like-named read-outs stand apart in the source and are kept apart here.

CDK6/Cyclin D3, sequence (Q00534 whole entry): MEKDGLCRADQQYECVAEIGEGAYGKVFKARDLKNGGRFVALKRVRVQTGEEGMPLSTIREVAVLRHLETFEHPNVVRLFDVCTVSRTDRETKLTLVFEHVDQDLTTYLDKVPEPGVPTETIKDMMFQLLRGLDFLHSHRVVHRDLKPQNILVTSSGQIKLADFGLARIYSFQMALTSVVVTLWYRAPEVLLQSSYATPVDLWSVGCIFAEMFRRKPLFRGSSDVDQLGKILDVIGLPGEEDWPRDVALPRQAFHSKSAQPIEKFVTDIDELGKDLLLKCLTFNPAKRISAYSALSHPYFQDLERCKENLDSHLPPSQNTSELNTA
CDK6/Cyclin D3, sequence (P30281 whole entry partner): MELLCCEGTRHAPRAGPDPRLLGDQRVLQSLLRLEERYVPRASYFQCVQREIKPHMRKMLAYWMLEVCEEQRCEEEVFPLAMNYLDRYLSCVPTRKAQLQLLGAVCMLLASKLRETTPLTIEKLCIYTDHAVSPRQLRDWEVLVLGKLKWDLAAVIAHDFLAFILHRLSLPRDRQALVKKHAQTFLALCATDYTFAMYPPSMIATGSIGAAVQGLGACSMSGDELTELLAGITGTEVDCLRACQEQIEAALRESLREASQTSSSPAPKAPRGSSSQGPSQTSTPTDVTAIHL
CDK1/Cyclin B1, sequence (P06493 whole entry): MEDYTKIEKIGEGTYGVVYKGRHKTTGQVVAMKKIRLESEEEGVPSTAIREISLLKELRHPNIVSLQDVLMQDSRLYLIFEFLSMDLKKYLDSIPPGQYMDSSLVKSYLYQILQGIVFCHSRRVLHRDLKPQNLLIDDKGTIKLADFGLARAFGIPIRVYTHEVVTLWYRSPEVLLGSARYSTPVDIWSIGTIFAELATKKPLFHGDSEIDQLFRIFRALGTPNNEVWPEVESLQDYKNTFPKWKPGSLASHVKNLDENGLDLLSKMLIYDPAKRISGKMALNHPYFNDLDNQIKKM
CDK1/Cyclin B1, sequence (P14635 whole entry partner): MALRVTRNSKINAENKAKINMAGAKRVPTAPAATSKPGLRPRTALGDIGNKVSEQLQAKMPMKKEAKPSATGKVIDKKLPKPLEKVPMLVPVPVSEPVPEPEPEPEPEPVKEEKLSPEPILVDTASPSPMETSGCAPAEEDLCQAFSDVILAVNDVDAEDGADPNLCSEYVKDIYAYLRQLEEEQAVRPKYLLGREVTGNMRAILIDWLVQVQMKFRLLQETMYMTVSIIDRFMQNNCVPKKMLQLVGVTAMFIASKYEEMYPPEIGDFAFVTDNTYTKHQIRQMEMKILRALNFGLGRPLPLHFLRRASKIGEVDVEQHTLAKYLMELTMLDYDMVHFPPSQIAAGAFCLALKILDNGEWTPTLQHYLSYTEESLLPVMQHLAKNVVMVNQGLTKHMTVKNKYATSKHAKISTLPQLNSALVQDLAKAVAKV

In the case of `CS(=O)(=O)N1CCC(Nc2ncc3cccc(N4CCC5(C4)CC(F)(F)C5)c3n2)CC1` [Example 3, 8-(2,2-difluoro-6-azaspiro[3.4]octan-6-yl)-N-(1-(methylsulfonyl)piperidin-4-yl)quinazolin-2-amine], the IC50 is 500 to 2000 nM against CDK1/Cyclin B1; under 200 nM in assay [1]; under 200 nM on CDK4/Cyclin D1; under 200 nM at CDK6/Cyclin D3; over 2000 nM with MCF-7 cells (Homo sapiens, MCF7, 144 h); over 2000 nM with OVCAR-3 cells (Homo sapiens, 144 h).
Take `FC(F)c1cc(N2CCC3(C2)CC3(F)F)c2nc(NC3[C@H]4CNC[C@@H]34)ncc2c1` (stereo partly drawn) [Example 53, 8-(1,1-difluoro-5-azaspiro[2.4]heptan-5-yl)-6-(difluoromethyl)-N-((1R,5S,6s)-3-azabicyclo[3.1.0]hexan-6-yl)quinazolin-2-amine]: the IC50 is over 2000 nM against CDK1/Cyclin B1; over 2000 nM in assay [1]; under 200 nM at CDK4/Cyclin D1; under 200 nM at CDK6/Cyclin D3; 500 to 2000 nM in the assay with MCF-7 cells; over 2000 nM in the assay on OVCAR-3 cells.
As for `CS(=O)(=O)N1CCC(Nc2ncc3cccc(N4CC5(CCS5(=O)=O)C4)c3n2)CC1` [Example 19, 6-(2-((1-(methylsulfonyl)piperidin-4-yl)amino)quinazolin-8-yl)-1-thia-6-azaspiro[3.3]heptane 1,1-dioxide], the IC50 was 200 to 500 nM against CDK1/Cyclin B1; under 200 nM in assay [1]; under 200 nM on CDK4/Cyclin D1; under 200 nM on CDK6/Cyclin D3; 500 to 2000 nM with MCF-7 cells (Homo sapiens, MCF7, 144 h); 500 to 2000 nM in the assay with OVCAR-3 cells (Homo sapiens, 144 h).
As for `CC(=O)N1CCC2(CCN(c3cccc4cnc(Nc5ccc(N6CCN(C)CC6)cc5)nc34)C2)C1` (stereo not drawn) [Example 33, 1-(7-(2-((4-(4-methylpiperazin-1-yl)phenyl)amino)quinazolin-8-yl)-2,7-diazaspiro[4.4]nonan-2-yl)ethan-1-one], the IC50 is over 2000 nM against CDK1/Cyclin B1; 5170 nM in assay [1] (given as number); under 200 nM on CDK4/Cyclin D1; under 200 nM at CDK6/Cyclin D3; over 2000 nM in the assay on MCF-7 cells (Homo sapiens, MCF7, 144 h); over 2000 nM in the assay on OVCAR-3 cells (Homo sapiens, 144 h).
On to `CCN1CC2(C1)CN(c1ccc(Nc3ncc4cccc(N5CC6(CC(O)C6)C5)c4n3)nc1)C2` [Example 48, 2-(2-((5-(6-ethyl-2,6-diazaspiro[3.3]heptan-2-yl)pyridin-2-yl)amino)quinazolin-8-yl)-2-azaspiro[3.3]heptan-6-ol], for which the IC50 on CDK1/Cyclin B1 is over 2000 nM; in assay [1], over 2000 nM; on CDK4/Cyclin D1, under 200 nM; on CDK6/Cyclin D3, under 200 nM; in the assay on MCF-7 cells (Homo sapiens, MCF7, 144 h), 500 to 2000 nM; with OVCAR-3 cells (Homo sapiens, 144 h), over 2000 nM.
Regarding `CC(=O)N1CCC2(CCN(c3c(F)ccc4cnc(NC5CCN(S(C)(=O)=O)CC5)nc34)C2)C1` (stereo not drawn) [Example 45, 1-(7-(7-fluoro-2-((1-(methylsulfonyl)piperidin-4-yl)amino)quinazolin-8-yl)-2,7-diazaspiro[4.4]nonan-2-yl)ethan-1-one], the IC50 was 500 to 2000 nM at CDK1/Cyclin B1; under 200 nM in assay [1]; under 200 nM at CDK4/Cyclin D1; under 200 nM on CDK6/Cyclin D3; over 2000 nM with MCF-7 cells (Homo sapiens, MCF7, 144 h); over 2000 nM in the assay on OVCAR-3 cells (Homo sapiens, 144 h).
With `CN1CC2(CCN(c3cccc4cnc(Nc5ccc(N6CC7(COC7)C6)cn5)nc34)C2)C1` [Example 42, N-(5-(2-oxa-6-azaspiro[3.3]heptan-6-yl)pyridin-2-yl)-8-(2-methyl-2,6-diazaspiro[3.4]octan-6-yl)quinazolin-2-amine], the IC50 was over 2000 nM at CDK1/Cyclin B1; over 2000 nM in assay [1]; under 200 nM on CDK4/Cyclin D1; 200 to 500 nM at CDK6/Cyclin D3; 200 to 500 nM in the assay on MCF-7 cells (Homo sapiens, MCF7, 144 h); over 2000 nM with OVCAR-3 cells (Homo sapiens, 144 h).
Regarding `CC(=O)N1CCC2(CCN(c3cc(C(F)F)cc4cnc(NC5CCN(S(C)(=O)=O)CC5)nc34)C2)C1` (stereo not drawn) [Example 50, 1-(7-(6-(difluoromethyl)-2-((1-(methylsulfonyl)piperidin-4-yl)amino)quinazolin-8-yl)-2,7-diazaspiro[4.4]nonan-2-yl)ethan-1-one], the IC50 on CDK1/Cyclin B1 is 200 to 500 nM; in assay [1], under 200 nM; on CDK4/Cyclin D1, under 200 nM; on CDK6/Cyclin D3, under 200 nM; in the assay with MCF-7 cells (Homo sapiens, MCF7, 144 h), 500 to 2000 nM; in the assay on OVCAR-3 cells (Homo sapiens, 144 h), over 2000 nM.
As for `CN1CC2(CCN(c3cccc4cnc(NC5CCN(S(C)(=O)=O)CC5)nc34)C2)C1` [Example 24, 8-(2-methyl-2,6-diazaspiro[3.4]octan-6-yl)-N-(1-(methylsulfonyl)piperidin-4-yl)quinazolin-2-amine], the IC50 against CDK1/Cyclin B1 is 200 to 500 nM; in assay [1], under 200 nM; on CDK4/Cyclin D1, under 200 nM; on CDK6/Cyclin D3 it was under 200 nM; in the assay on MCF-7 cells (Homo sapiens, MCF7, 144 h) it was 500 to 2000 nM; with OVCAR-3 cells (Homo sapiens, 144 h), 500 to 2000 nM.
With `CN1CC2(CCC1=O)CCN(c1cccc3cnc(NC4CCN(S(C)(=O)=O)CC4)nc13)C2` (stereo not drawn) [Example 55, 7-methyl-2-(2-((1-(methylsulfonyl)piperidin-4-yl)amino)quinazolin-8-yl)-2,7-diazaspiro[4.5]decan-8-one], the IC50 on CDK1/Cyclin B1 was over 2000 nM; in assay [1] it was 500 to 2000 nM; at CDK4/Cyclin D1, 200 to 500 nM; at CDK6/Cyclin D3, 500 to 2000 nM; in the assay on MCF-7 cells (Homo sapiens, MCF7, 144 h), over 2000 nM; in the assay on OVCAR-3 cells (Homo sapiens, 144 h) it was over 2000 nM.
In the case of `CN1C[C@@H]2[C@H](C1)[C@H]2Nc1ncc2cc(C(F)F)cc(N3CCC4(C3)CS(=O)(=O)C4)c2n1` [Example 54, 6-(6-(difluoromethyl)-2-(((1R,5S,6s)-3-methyl-3-azabicyclo[3.1.0]hexan-6-yl)amino)quinazolin-8-yl)-2-thia-6-azaspiro[3.4]octane 2,2-dioxide], the IC50 is over 2000 nM against CDK1/Cyclin B1; over 2000 nM in assay [1]; under 200 nM at CDK4/Cyclin D1; 200 to 500 nM at CDK6/Cyclin D3; over 2000 nM in the assay with MCF-7 cells; over 2000 nM with OVCAR-3 cells.
For `CCN1CC2(C1)CN(c1ccc(Nc3ncc4cccc(N5CC6(CCS6(=O)=O)C5)c4n3)nc1)C2` [Example 44, 6-(2-((5-(6-ethyl-2,6-diazaspiro[3.3]heptan-2-yl)pyridin-2-yl)amino)quinazolin-8-yl)-1-thia-6-azaspiro[3.3]heptane 1,1-dioxide], the IC50 against CDK1/Cyclin B1 was over 2000 nM; in assay [1], over 2000 nM; on CDK4/Cyclin D1, under 200 nM; on CDK6/Cyclin D3, 200 to 500 nM; in the assay with OVCAR-3 cells (Homo sapiens, 144 h), over 2000 nM.
With `CS(=O)(=O)N1CCC(Nc2ncc3cccc(N4CC5(CC(O)C5)C4)c3n2)CC1` [Example 18, 2-(2-((1-(methylsulfonyl)piperidin-4-yl)amino)quinazolin-8-yl)-2-azaspiro[3.3]heptan-6-ol], the IC50 against CDK1/Cyclin B1 is under 200 nM; in assay [1], under 200 nM; at CDK4/Cyclin D1 it was under 200 nM; at CDK6/Cyclin D3, under 200 nM; in the assay with MCF-7 cells (Homo sapiens, MCF7, 144 h), 500 to 2000 nM; with OVCAR-3 cells (Homo sapiens, 144 h), 500 to 2000 nM.
Regarding `CS(=O)(=O)N1CCC(Nc2ncc3cccc(N4CCC(C#N)(C5CC5)C4)c3n2)CC1` (stereo not drawn) [Example 27, 3-cyclopropyl-1-(2-((1-(methylsulfonyl)piperidin-4-yl)amino)quinazolin-8-yl)pyrrolidine-3-carbonitrile], the IC50 was 500 to 2000 nM against CDK1/Cyclin B1; under 200 nM in assay [1]; under 200 nM on CDK4/Cyclin D1; under 200 nM on CDK6/Cyclin D3; over 2000 nM with MCF-7 cells (Homo sapiens, MCF7, 144 h); over 2000 nM with OVCAR-3 cells (Homo sapiens, 144 h).
For the molecule “N-(1-(methyl sulfonyl) piperidin-4-yl)-8-(2,6-diazaspiro[3.4]octan-2-yl) quinazolin-2-amine [Example 32]”, the IC50 at CDK1/Cyclin B1 was over 2000 nM; in assay [1], under 200 nM; at CDK4/Cyclin D1, 200 to 500 nM; at CDK6/Cyclin D3, 500 to 2000 nM.
